Literature values in patent US7867523B2, “Pharmaceutical composition” (priority 2008, dated 2011).

Legend:
influenza virus = conditions: administered six hours after infection and continued for twenty-four hours
[1] = acute and long-term, animals, oral
[2] = tested on: immune cell types present in the blood; conditions: one gram daily for two weeks, patients

Compound: Oc1ccc(C=Cc2cc(O)cc(O)c2)cc1 [resveratrol, Resveratrol]
- antiviral effect (restricting ability of the virus to replicate) (influenza virus): substantial

Compound: Arabinogalactan
- toxicity [1]: no evidence of toxicity

Compound: O=C1O[C@H]([C@@H](O)CO)C(O)=C1O [vitamin C, Ascorbic acid]
- interferon-gama production by T cells [2]: significantly more
- number of NK cells [2]: increased
- number of T cells [2]: remained the same
